In brackets after ≈: the same amount, converted by molar mass. Several values for one entry are separate records, joined by “and”; a condition that tells them apart may be missing. Equal entries are not always repeated. Where two headings read alike, the source gives them in different places.
Columns and labels:
[1] = system: Halotydeus destructor susceptible population; test: Coated plastic vial bioassay, redlegged earth mite, susceptible population; format: in vivo; details: for mortality at 300 µg/mL: 300 mg a.i./L
Procedure: The efficacy of flavesone against H. destructor was assessed using the glass vial technique developed by Hoffmann et al. (1997, Exp. Appl. Acarol., 21:151-162), adapted for plastic vials. A susceptible population of mites was collected from capeweed (Arctotheca calendula) at a Victorian site (37° 40′33″S, 145° 07′ 45″E) that had no known history of insecticide application. Following collection, samples were stored in small plastic containers with leaf material and paper towel to absorb excess moisture. Containers were kept at 4° C. prior to testing.
The test compositions included 0.1% Tween 20 non-ionic surfactant to aid the spread of insecticides when coating plastic vials. This concentration of Tween 20 has been previously shown to have no toxic effect on H. destructor. For each insecticide concentration tested, 3, 10, 30, 100, 300, 1000, 3000 and 10000 mg a.i./L (ppm), approximately 10 mL of solution was poured into a 15 mL plastic vial and swirled to ensure a complete coating, with excess liquid removed. Eight vials were coated per concentration and were left to dry overnight. Control vials were treated in the same way but with water used in place of test composition.
Eight susceptible H. destructor mites were then placed into each vial along with a leaf of common vetch (Vicia sativa). The leaf was added to provide food and increase humidity. Vials were then sealed with a lid and placed at 18° C. After 4, 6, 8 and 24 hours of exposure, the mites were scored as alive (moving freely), incapacitated (inhibited movement), or dead (no movement over a 5 second period). […]
The data produced in the assays were assessed for concentrations that caused 50, 90 and 99% mortality (lethal concentration, LC), together with 95% confidence intervals (CIs) and were estimated from observations of mortality after 24 hours exposure using a binomial logistic regression (Robertson & Preisler, 1992, Pesticide Bioassays with Arthropods. CRC: Boca Raton; Venables & Ripley, 2002, Modern Applied Statistics with S. Springer: New York). Population differences were tested by comparing the change in model deviance with and without the population factor (different regression intercepts for each population). Differences in regression slopes between populations were tested by comparing the change in model deviance with and without the population×dose interaction term. The resistance ratio of the insecticide-resistant population was estimated as the ratio of its LC50 to that of the susceptible population. All analyses were performed using R 3.3. (R Core Team 2017, R: A language and environment for statistical computing. R Foundation for Statistical Computing, Vienna, Austria. http://www.R-project.org).

[2] = system: M. persicae (green peach aphid) insecticide-susceptible population; test: Leaf dip bioassay, green peach aphid, susceptible population; format: in vivo, Myzus persicae; details: Susceptible population, 96 hours exposure
Procedure: Each colony was maintained separately on bok choi plants ([…]) within an exclusion cage in a constant temperature room at 24° C. with a photoperiod of 16:8 LD.
Laboratory bioassays were used to determine the efficacy of flavesone against M. persicae following the leaf dip method described in Moores et al. (1994, Pesticide Biochemistry and Physiology, 49, 114-120). A pilot study was first conducted which confirmed that the leaf dip method was appropriate to elicit a clear dose response for Flavocide 500EW against M. persicae, and to determine the appropriate rate range and timing of mortality assessments (scored at 24, 48, 72 & 96 hours) (data not shown).
Bioassays were then conducted to assess the efficacy of flavesone against a susceptible and resistant population of M. persicae, and to calculate LC values. The efficacy of a conventional insecticide, pirimicarb, was tested for comparison. Nine concentrations of flavesone ranging from 1×10^−3 to 10 times the proposed field rate (Table 15), and six concentrations of pirimicarb were serially diluted and tested, along with a water control, against the susceptible and resistant aphid populations. Leaf discs (25 mm diameter) cut from bok choi leaves were submerged for 1 second in the insecticide solutions, or in the water control, and placed adaxial side up on 10 g/L agar in 35 mm petri dishes. Six replicate leaf discs were prepared per treatment. Once leaves were air-dry, eight M. persicae nymphs were transferred to each insecticide-dipped leaf disc using a fine-haired paintbrush.
After aphid introduction, each petri dish was inverted onto a lid containing a 25 mm diameter filter paper to control humidity. All petri dishes were then placed into an incubator held at 18° C.±2° C. with a photoperiod of 16:8 LD cycle. At 48 & 96 hours, aphids were scored as alive (vibrant and moving freely), dead (not moving over a 5 second period), or incapacitated (inhibited movement).
Dose-response curves were generated by plotting percentage mortality against log concentration. Mortality data was analysed using a logistic regression model with random effects. Logistic regression is suited for the analysis of binary response data (i.e. dead/alive) with the random effect component of the model controlling for the non-independence of mortality scores within replicates. […] Population differences were tested by comparing the change in model deviance with and without the population factor (different regression intercepts for each population). Differences in regression slopes between populations were tested by comparing the change in model deviance with and without the population×dose interaction term.

[3] = system: Tribolium castaneum strain QTC279 (resistant to malathion and bioresmethrin); test: Grain protectant bioassay on treated wheat, T. castaneum resistant; format: in vivo; details: for Progeny reduction (%): vs untreated control
[4] = system: Aedes aegypti Liverpool strain (insecticide susceptible, LVP) L3 larvae; test: Mosquito larval dose response assay, LVP strain; details: read-out: Lethal Concentration (LC50) LVP Strain
[5] = system: Rhyzopertha dominica strain QRD1440 (resistant to OP protectants and pyrethroids); test: Grain protectant bioassay on treated wheat, resistant lesser grain borer; details: for Live adult progeny: mean ± SE; for Progeny reduction (%): vs untreated control
[6] = Susceptible population, 24 hours exposure
[7] = Example 6, QRD1440, 25 ppm on wheat, replicates A, B, C
[8] = Example 6, QRD1440, 50 ppm on wheat, replicates A, B, C
[9] = Example 6, QRD1440, 75 ppm on wheat, replicates A, B, C
[10] = Example 7, QRD1440, 60 ppm on wheat, replicates A, B, C
[11] = Rhyzopertha dominica, in Triticum aestivum, 336 h, read-out: Adult mortality (%)

For CC(C)C(=O)C1C(=O)C(C)(C)C(=O)C(C)(C)C1=O [Flavesone, 1-isobutyroyl-3,3,5,5-tetramethylcyclohexane-2,4,6-trione], the mortality ([1]; Example 9, all application rates above 300 mg a.i./L, by 4 hours exposure) was 100%, the mortality at 300 µg/mL ([1]; Halotydeus destructor, Example 9, 4 hours of exposure, read-out: mortality (average)) was 55% and the mortality at 300 µg/mL ([1]; Halotydeus destructor, Example 9, by 8 hours of exposure, read-out: mortality) was 100%. The LC50 ([1]; Halotydeus destructor, Susceptible population, 24 hours exposure, read-out: LC50 (mg a.i./L)) was 40.6 µg/mL (≈ 161 µM), the “LC90 (mg a.i./L)” value [1, 6] was 142.55 mg a.i./L and the “LC99 (mg a.i./L)” value [1, 6] was 561.35 mg a.i./L. The LC50 ([2]; Myzus persicae, foliar, read-out: LC50 (mg a.i./L)) was 2730 µg/mL (≈ 10800 µM), the “LC90 (mg a.i./L)” value [2] was 6,034 mg a.i./L and the “LC99 (mg a.i./L)” value [2] was 14,330 mg a.i./L. The Live adult progeny ([3]; 25 mg/kg, mean ± SE) was 265.3 ± 27.7, the “Progeny reduction (%)” value ([3]; 25 mg/kg) was 17.4% and the Live adult progeny ([3]; 60 mg/kg, mean ± SE) was 204.3 ± 27.8. The “Progeny reduction (%)” value ([3]; 60 mg/kg) was 36.4%, the “Progeny reduction (%)” value ([3]; 60 mg/kg, listed as flavesone) was 36% and the mortality at 25 mg/kg ([3]; Tribolium castaneum, 336 h, 25 mg/kg, 2 weeks, mean ± SE, read-out: Adult mortality (%)) was 0%. It also gave a mortality at 60 mg/kg ([3]; Tribolium castaneum, 336 h, 60 mg/kg, 2 weeks, mean ± SE, read-out: Adult mortality (%)) of 0%, an LC50 ([4]; 24 h) of 40.9 µg/mL (≈ 162 µM) and an LC50 ([4]; 48 h) of 40.5 µg/mL (≈ 161 µM). For the same compound, the LC50 ([4]; 72 h) was 39.7 µg/mL (≈ 157 µM), the “F1 Progeny count No. dead/total” value ([5]; Example 5, QRD1440, 25 ppm on wheat, further 6 weeks, replicates A, B, C) was 0/37 and 0/62 and 0/90 and the “14 Day adult mortality No. dead (total)” value ([5]; Example 5, QRD1440, 25 ppm on wheat, replicates A, B, C) was 19/50 and 11/50 and 14/50. The “14 day Adult Mortality No. dead/total” value [5, 7] was 22/50 and 21/50 and 30/50, the “F1 Progeny count No. dead/total” value [5, 7] was 0/20 (2×) and 0/5 and the “14 day Adult Mortality No. dead/total” value [5, 8] was 47/50 (2×) and 49/50. The “F1 Progeny count No. dead/total” value [5, 8] was 0/0, the “14 day Adult Mortality No. dead/total” value [5, 9] was 50/50 and the “F1 Progeny count No. dead/total” value [5, 9] was 0/0. The “14 day Adult Mortality No. dead/total” value [5, 10] was 50/50, the “F1 Progeny count No. dead/total” value [5, 10] was 0/0 and the Live adult progeny ([5]; QRD1440, 25 mg/kg) was 23.7 ± 9.0. The “Progeny reduction (%)” value ([5]; QRD1440, 25 mg/kg) was 88.8%, the “Progeny reduction (%)” value ([5]; QRD1440, 25 mg/kg, listed as flavesone) was 88% and the Live adult progeny ([5]; QRD1440, 60 mg/kg) was 0.0 ± 0.0. For the same compound, the “Progeny reduction (%)” value ([5]; QRD1440, 60 mg/kg) was 100%, the mortality at 25 mg/kg [5, 11] was 56.7 ± 4.1% and the mortality at 60 mg/kg [5, 11] was 100%.
